Laboratory results reported in patent publication US8883841B2, “Oncogenic ras-specific cytotoxic compound and methods of use thereof” (The Board of Regents of the University of Texas System, priority 2005, dated 2014).

How the values were obtained:
H460 cells = assay: PKCiota siRNA knockdown, apoptosis by FACS in H460 cells; format: cell-based, human; settings: 1 μM, 12 h
Procedure: Knockdown of PKCiota suppressed Oncrasin-mediated apoptosis and cytotoxicity. To investigate possible role of PCKiota in Oncrasin-1 mediated cytotoxicity, PKCiota was knocked down in H460 cells by using oligo ribonucleotides. H460 cells were treated with 200 pM PKCiota siRNA for 24 h, and then with DMSO or 1 μM Oncrasin for another 12 h. After that, cells harvested for analysis of apoptosis by fluorescence-activated cell sorting (FACS) and for expression of PKCiota by Western blot analysis. […] To further study the effect of atypical PKC in Oncrasin-induced cytotoxicity, the inventors obtained plasmids encoding PKCiota and PKCzeta siRNA from Origene Corporation and made stable PKCiota and PKCzeta knockdown T29Kt1 cells. […] The IC50 in PKCiota knockdown T29Kt1 cells were 100 fold higher than parental T29K cells. […] Thus, compounds with synthetic lethality for PKCiota might be useful for treatment of those cancers.

Raf-1 mRNA = assay: RT-PCR analysis of Raf-1 mRNA in H460 cells; format: cell-based, human
Procedure: FIGS. 10A-10D Effect of Oncrasin-1 on Raf-1 expression. (FIG. 10A) H460 cells were treated with various concentrations of Oncrasin-1 and harvested 24 h later for Western blot analysis. (FIG. 10B) Reverse transcriptase-based polymerase chain reaction (RT-PCR) assay. H460 cells treated with 1 μM Oncrasin-1 for various times or at various concentrations for 24 h, as indicated. (+, −, positive and negative controls). […] (FIG. 10D) Dose effects of Oncrasin-1 on stable cell lines transfected with Raf-1 plasmids. Parental H460 cells and H460 cells transfected with wild-type Raf-1 (Raf-1), constitutive Raf-1 (Raf-1C), or dominant-negative Raf-1 Raf-1/DN) were treated with various concentrations of Oncrasin-1, and cell viability was determined by SRB assay.
Suppression of Raf-1 expression by Oncrasin-1. […] To elucidate the roles of Raf-1 in Oncrasin-induced apoptosis, the inventors evaluated the expression of Raf-1 in H460 cells after treatment with different concentrations of Oncrasin-1. […] Because Raf-1 executes anti-apoptosis function via a variety of pathways. […] However, the resistance to Oncrasin-1 was more prominent in the constitutively active Raf-1-transfected cells than in cells with the wild-type Raf-1 (FIG. 10C and FIG. 10D).

[1] = system: TNFα-induced NFκB activation; assay: NFκB reporter plasmid (pNFκB-Luc) luciferase assay in T29Kt1 cells; format: cell-based, human; settings: 10 μM, TNFα 1 ng/ml, 8 h
Procedure: FIGS. 11A-11C Suppression of TNFα-induced NFκB activation. NKκB reporter plasmid assay. T29K cells were transfected with pNFκB-Luc and pCMV-lacZ. 12 h later, the cells were treated with TNFα (1 ng/ml) with or without (FIG. 11A) Oncrasin-1 (10 μM) or (FIG. 11B) Sulindac (10 μm). The luciferase activity was determined at 8 h after the treatment and normalized with beta-gal activity. (FIG. 11C) H460 and T29K cells were treated with DMSO or different concentrations of Oncrasin-1 as indicated for 12 h, with or without TNFα (1 ng/ml). The NFκB activity was analyzed by EMSA.
Suppression of NFκB. In a separated study, the effect of Oncrasin compounds on NF-κB activity was assessed. Nuclear factor-κB (NF-κB)/Rel represents a group of structurally related and evolutionarily conserved transcriptional factors that play critical roles in chronic and acute inflammatory diseases, autoimmune diseases and various type of cancers (Karin and Neriah, 2000; Karin and Karin, 2006; Barnes et al., 1997). In unstimulated cells, most NF-κB/Rel dimers are bound to IκBs and retained in the cytoplasm. Upon a various stimulations, IκBs are phosphorylated and rapidly degraded, releasing NF-κB, which then enters the nucleus and executes transcriptional functions. […] The luciferase activity was determined and normalized for transfection with beta-galactosidase activity. […]

wild-type MEF = assay: Icmt-dependent growth inhibition, wild-type MEF; format: cell-based, mouse; settings: up to 100 μM
Source text: Oncrasin and Oncrasin Analogs. Chemically, Oncrasin-1 has the same core structure as indole-3-carbinol, a naturally occurring constituent of many plant foods that has been tested for the prevention and treatment of cancer (Brignall, 2001; Kelloff et al., 1996; Chinni et al., 2001). Oncrasin-1 also has structural similarity to sulindac (Taylor et al., 2000; Sun et al., 2002) and lonidamine (Ravagnan et al., 1999; Papaldo et al., 2003), both of which have been evaluated preclinically and clinically for treatment of cancers. […] Oncrasin compounds also bear a indole core structure as the small-molecule inhibitor of isoprenylcysteine carboxylmethyltransferase (Icmt), 2-[5-(3-methylphenyl)-1-octyl-1H-indol-3-yl]acetamide (cysmethynil), which also induces antitumor activity in Ras gene mutant cancer cells (Winter-Vann et al., 2005). […] Both wild-type MEF and Icmt−/− MEF (Bergo et al., 2004) (kindly provided by Dr. S G Young at the University of California, San Francisco) were resistant to Oncrasin-1.

## O=Cc1cn(Cc2ccc(Cl)cc2)c2ccccc12 [Oncrasin K001, 1H-Indole-3-carboxaldehyde, 1-[(4-chlorophenyl)methyl]-(9CI)]
H460 cells
  apoptosis in H460 cells after knockdown of PKCiota by siRNA: dramatically suppressed Oncrasin-induced apoptosis
Raf-1 mRNA
  Raf-1 mRNA level: decreased in a dose- and time-dependent fashion
[1]
  suppression of TNFα-induced NFκB activation (luciferase): more active than Sulindac
wild-type MEF
  growth inhibition, wild-type MEF: resistant
